# Results as given in patent US11702403B2, “EAAT2 activators and methods of using thereof” (OHIO STATE INNOVATION FOUNDATION, priority 2018, dated 2023).
# Structures can show the parent of a compound that is named as a salt.
# How the values were obtained:
# human EAAT2 = assay: EAAT2 protein levels in PA-EAAT2 cells by Western blot; assay type: cell-based; settings: PA-EAAT2 cells, 24 hr; for Fold increase for EAAT2 at indicated concentration (maximum activity): EAAT2 protein relative to DMSO; for concentration that reaches maximum activity: tested 0.0375-10 μM
# Protocol: Compounds were evaluated in PA-EAAT2 cells, a primary astrocyte stably expressing human EAAT2 mRNAs (Kong et al., J Clin Invest. 2014:1255-67). Cells were treated with compound at 0.0375, 0.075, 0.15, 0.3, 0.6, 1.25, 2.5, 5, 10 μM for 24 hr and then harvested for measuring EAAT2 protein levels by Western blot analysis.
# [1] = tested on: CA3-CA1 LTP in the hippocampus; assay: Long-term potentiation (LTP) in acute hippocampal slices of treated wild-type mice; assay type: in vivo; settings: 0.033, 0.33, and 3.3 mg/kg for seven days, vs vehicle
# Protocol: Mice were treated with compound at 40 mg/kg (or as depicted) and forebrains were harvested for the gliosome preparation 24 hr (or as described) post-treatment. FIG. 2A: Western blots show dose-dependent increase of EAAT2 protein levels. FIG. 2B: Time-dependent fold increase in EAAT2 protein expression in response to compound treatment at 4 hours (1.54±0.13) and 24 hours (1.98±0.19) post-treatment. Quantification of EAAT2 expression time course (normalized to flotilin; n=4/group). Data represented as mean SEM and analyzed using one-way ANOVA with Tukey post-hoc test. *p<0.05, **p<0.01. FIG. 2C: Compound treatment enhances CA3-CA1 LTP in the hippocampus. Mice were treated with vehicle or compound for seven days and acute hippocampal sections were collected for LTP recordings. […] Data represented as mean SEM analyzed using one-way ANOVA with Bonferroni post-hoc tests. […]
# At 24 hours post-treatment, mice were euthanized and forbrains were harvested. […] Acute hippocampal slices were then collected and assessed for changes in long-term potentiation (LTP).
# Wild-type C57BL/6 mice (2-3 months old) were treated orally with compound 101 at 0.01, 0.033, 0.1, 0.33, 1, 3.33, 10, 20, 40, 60, and 100 mg/kg/day (voluntary ingestion of compound in honey) for seven or 28 days. […] Mice were then euthanized and acute hippocampal slices were collected and assessed for changes in long-term potentiation (LTP).
# EAAT2 = EAAT2 protein levels in brains of wild-type C57BL/6 mice by Western blot; assay type: in vivo; settings: oral 0.01-100 mg/kg/day for seven or 28 days
# Protocol: Mice then were euthanized and brains were harvested for examining EAAT2 protein levels by Western blot analysis.
# Wild-type C57BL/6 mice (2-3 months old) were treated orally with compound 101 at 0.01, 0.033, 0.1, 0.33, 1, 3.33, 10, 20, 40, 60, and 100 mg/kg/day (voluntary ingestion of compound in honey) for seven or 28 days. Mice then were euthanized and brains were harvested for examining EAAT2 protein levels by Western blot analysis. […] To determine the functional consequences of the increased EAAT2 to the synaptic plasticity, wild-type mice were treated with vehicle or compound 101 at 0.033, 0.33, and 3.3 mg/kg for seven days. Mice were then euthanized and acute hippocampal slices were collected and assessed for changes in long-term potentiation (LTP).
SMILES,Fold increase for EAAT2 at indicated concentration (maximum activity) (human EAAT2),concentration that reaches maximum activity (human EAAT2),CA1 field potential responses to stimulation of CA3 afferents (LTP) [1],EAAT2 protein levels in mouse brains (EAAT2)
"O=c1ccc(-c2ccccn2)nn1CCN1CCOCC1 [Compound 126, 2-(2-Morpholinoethyl)-6-(pyridin-2-yl)pyridazin-3(2H)-one hydrochloride]",2.2 ± 0.5 fold,0.3 µM,,
"O=C1CCCN1CCn1nc(-c2ccccn2)ccc1=O [Compound 133, 2-(2-(2-Oxopyrrolidin-1-yl)ethyl)-6-(pyridin-2-yl)pyridazin-3(2H)-one]",1.9 ± 0.3 fold,2.5 µM,,
"NCCn1nc(-c2ccccn2)ccc1=O [Compound 102, 2-(2-Aminoethyl)-6-(pyridin-2-yl)pyridazin-3(2H)-one hydrochloride]",2.8 ± 0.3 fold,1.25 µM,,
"CN(C)CCn1cc(-c2ccccn2)ncc1=O [Compound 214, 1-(2-(Dimethylamino)ethyl)-5-(pyridin-2-yl)pyrazin-2(1H)-one hydrochloride]",1.5 ± 0.1 fold,2.5 µM,,
"CN(C)CCn1cc(-c2ccccn2)ccc1=O [Compound 213, 1′-(2-(Dimethylamino)ethyl)-[2,3′-bipyridin]-6′(1′H)-one hydrochloride]",2.3 ± 0.1 fold,0.6 µM,,
"CC(c1ccccn1)n1nc(-c2ccccn2)ccc1=O (stereo not shown) [Compound 198, 6-(Pyridin-2-yl)-2-(1-(pyridin-2-yl)ethyl)pyridazin-3(2H)-one]",2.0 ± 0.3 fold,0.15 µM,,
"COCCn1nc(-c2ccccn2)ccc1=O [Compound 172, 2-(2-Methoxyethyl)-6-(pyridin-2-yl)pyridazin-3(2H)-one]",2.9 ± 0.1 fold,0.3 µM,,
"CNCCn1nc(-c2ccccn2)ccc1=O [Compound 101, 2-(2-(Methylamino)ethyl)-6-(pyridin-2-yl)pyridazin-3(2H)-one hydrochloride]",2.6 ± 0.2 fold,0.3 µM,significantly increased responses,dose-dependently increased
"COc1cccc(-c2ccc(=O)n(CCN(C)C)n2)c1 [Compound 207, 2-(2-(Dimethylamino)ethyl)-6-(3-methoxyphenyl)pyridazin-3(2H)-one hydrochloride]",3.5 ± 0.3 fold,0.15 µM,,
"Cc1cc(=O)n(CCN(C)C)nc1-c1ccccn1 [Compound 196, N,N-2-(2-(dimethylamino)ethyl)-5-methyl-6-(pyridin-2-yl)pyridazin-3(2H)-one hydrochloride]",4.2 ± 0.2 fold,0.6 µM,,
"CNC(=O)CCn1nc(-c2ccccn2)ccc1=O [Compound 123, N-Methyl-3-(6-oxo-3-(pyridin-2-yl)pyridazin-1(6H)-yl)propanamide]",2.5 ± 0.2 fold,0.3 µM,,
"COc1ccc(-c2ccc(=O)n(CCN(C)C)n2)cc1 [Compound 208, 2-(2-(Dimethylamino)ethyl)-6-(4-methoxyphenyl)pyridazin-3(2H)-one hydrochloride]",1.7 ± 0.2 fold,0.3 µM,,
"O=c1ccc(-c2ccccn2)nn1Cc1ncco1 [Compound 146, 2-(Oxazol-2-ylmethyl)-6-(pyridin-2-yl)pyridazin-3(2H)-one]",2.6 ± 0.2 fold,2.5 µM,,
"CN(CCn1nc(-c2ccccn2)ccc1=O)c1ccccc1 [Compound 110, 2-(2-(Methyl(phenyl)amino)ethyl)-6-(pyridin-2-yl)pyridazin-3(2H)-one]",2.3 ± 0.3 fold,0.6 µM,,
"Cc1cc(-c2ccccn2)nn(CCN(C)C)c1=O [Compound 195, 2-(2-(Dimethylamino)ethyl)-4-methyl-6-(pyridin-2-yl)pyridazin-3(2H)-one hydrochloride]",2.5 ± 0.2 fold,0.3 µM,,
Cn1ccnc1Cn1nc(-c2ccccn2)ccc1=O [Compound 201],2.5 ± 0.4 fold,0.6 µM,,
"CN(C)CCCn1nc(-c2ccccn2)ccc1=O [Compound 166, 2-(3-(Dimethylamino)propyl)-6-(pyridin-2-yl)pyridazin-3(2H)-one hydrochloride]",2.0 ± 0.2 fold,0.3 µM,,
"CN(C)CCOc1ccccc1NC(=O)Cn1nc(-c2ccccn2)ccc1=O [Compound 203, N-(2-(2-(Dimethylamino)ethoxy)phenyl)-2-(6-oxo-3-(pyridin-2-yl)pyridazin-1(6H)-yl)acetamide]",2.0 ± 0.2 fold,0.6 µM,,
"COc1ccccc1-c1ccc(=O)n(CCN(C)C)n1 [Compound 206, 2-(2-(Dimethylamino)ethyl)-6-(2-methoxyphenyl)pyridazin-3(2H)-one hydrochloride]",2.4 ± 0.1 fold,0.15 µM,,
